Drawing on publication PMC11808726, “Identification of ABHD6 as a lysophosphatidylserine lipase in the mammalian liver and kidneys” (The Journal of Biological Chemistry, 2025), this text covers IC50 for one compound.

This experiment concerns the target T1, ABHD6 (Mus musculus, UniProt Q8R2Y0).
T1 construct: full-length mouse ABHD6, pcDNA3.1 myc-His, overexpressed in HEK293T (membrane fraction)
T1 sequence (Q8R2Y0 1-336): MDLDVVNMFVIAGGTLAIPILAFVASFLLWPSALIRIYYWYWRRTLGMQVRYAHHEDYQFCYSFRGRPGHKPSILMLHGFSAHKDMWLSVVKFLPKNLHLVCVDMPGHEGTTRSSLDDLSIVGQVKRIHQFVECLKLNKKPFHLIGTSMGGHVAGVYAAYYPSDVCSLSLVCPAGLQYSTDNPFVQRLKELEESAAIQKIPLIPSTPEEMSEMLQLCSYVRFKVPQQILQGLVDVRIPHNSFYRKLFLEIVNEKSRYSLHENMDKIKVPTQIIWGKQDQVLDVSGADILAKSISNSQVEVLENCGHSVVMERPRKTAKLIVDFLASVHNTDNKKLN
Kind of experiment: competitive gel-based ABPP dose response with FP-rhodamine; lyso-PS lipase LC-MS assay; in vivo ABPP. In kind it is biochemical.

In turn, `O=C(c1cccc(-c2ccc(-c3cn(C(=O)N4CCCCC4c4ccccc4)nn3)cc2)c1)N1CCCCC1` (stereo not shown) [KT185] returned an IC50 below 10 nM.

The IC50 is the concentration that inhibits the measured activity by half. Low readings indicate greater potency, high ones weaker potency.
